This note sets out measurements from patent US6903112B2, “Heterocyclylindazole and -azaindazole compounds as 5-hydroxytryptamine-6 ligands” (Wyeth, priority 2000, dated 2005).

The target of the assay is T1, human cloned 5-HT6 receptors (Homo sapiens, UniProt P50406).
T1 construct: expressed in transfected cells; host or cells: Hela cells
As to the kind of experiment: 5-HT6 binding affinity, [3H]-LSD displacement on Hela cell membranes. The note with it: [3H]-LSD 3.0 nM; membranes of Hela cells expressing human cloned 5-HT6 receptors; 120 min at room temperature. As to the method: The affinity of test compounds for the serotonin 5-HT6 receptor is evaluated in the following manner. Cultured Hela cells expressing human cloned 5-HT6 receptors are harvested and centrifuged at low speed (1,000×g) for 10.0 min to remove the culture media. The harvested cells are suspended in half volume of fresh physiological phosphate buffered saline solution and recentrifuged at the same speed. This operation is repeated. The collected cells are then homogenized in ten volumes of 50 mM Tris.HCl (pH 7.4) and 0.5 mM EDTA. The homogenate is centrifuged at 40,000×g for 30.0 min and the precipitate is collected. The obtained pellet is resuspended in 10 volumes of Tris.HCl buffer and recentrifuged at the same speed. The final pellet is suspended in a small volume of Tris.HCl buffer and the tissue protein content is determined in aliquots of 10-25 μl volumes. Bovine Serum Albumin is used as the standard in the protein determination according to the method described in Lowry et al., J. Biol. Chem., 193:265 (1951). The volume of the suspended cell membranes is adjusted to give a tissue protein concentration of 1.0 mg/ml of suspension. The prepared membrane suspension (10 times concentrated) is aliquoted in 1.0 ml volumes and stored at −70° C. until used in subsequent binding experiments.
Binding experiments are performed in a 96 well microtiter plate format, in a total volume of 200 μl. […] The test compounds are added in 20.0 μl volume.
The reaction is allowed to proceed in the dark for 120 min at room temperature, at which time, the bound ligand-receptor complex is filtered off on a 96 well unifilter with a Packard Filtermate® 196 Harvester. The bound complex caught on the filter disk is allowed to air dry and the radioactivity is measured in a Packard TopCount® equipped with six photomultiplier detectors, after the addition of 40.0 μl Microscint®-20 scintillant to each shallow well. The unifilter plate is heat-sealed and counted in a PackardTopCount® with a tritium efficiency of 31.0%.
Binding in the presence of varying concentrations of test compound is expressed as a percentage of specific binding in the absence of test compound. The results are plotted as log % bound versus log concentration of test compound. […] A linear regression line of data points is plotted, from which the IC50 value is determined and the Ki value is determined based upon the following equation: Ki=IC50/(1+L/KD) where L is the concentration of the radioactive ligand used and KD is the dissociation constant of the ligand for the receptor, both expressed in nM.

Structures are written as SMILES.

T1 sequence (P50406 whole entry): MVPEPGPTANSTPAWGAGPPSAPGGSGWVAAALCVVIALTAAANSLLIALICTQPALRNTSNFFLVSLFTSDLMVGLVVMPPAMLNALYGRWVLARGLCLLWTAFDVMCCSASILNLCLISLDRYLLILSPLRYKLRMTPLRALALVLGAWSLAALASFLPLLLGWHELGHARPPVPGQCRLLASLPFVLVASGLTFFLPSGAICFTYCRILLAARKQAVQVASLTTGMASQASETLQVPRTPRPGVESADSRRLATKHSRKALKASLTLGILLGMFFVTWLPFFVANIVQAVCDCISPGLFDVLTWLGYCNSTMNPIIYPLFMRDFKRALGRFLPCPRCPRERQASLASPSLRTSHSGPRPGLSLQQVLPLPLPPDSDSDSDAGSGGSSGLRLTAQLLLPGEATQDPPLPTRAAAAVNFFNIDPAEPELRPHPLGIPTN

On to `CN1CCC(c2cn(S(=O)(=O)c3ccc(F)cc3)c3ccccc23)C1` (stereo not drawn) [Example 4, 1-(4-fluorophenylsulfonyl)-3-(1-methyl-pyrrolidin-3-yl)-1H-indole], for which the Ki amounted to 2 nM.

Consider `CN1CCC(c2cn(S(=O)(=O)c3ccc(Cl)cc3)c3ccccc23)C1` (stereo not drawn) [Example 6, 1-(4-chlorophenylsulfonyl)-3-(1-methylpyrrolidin-3-yl)-1H-indole], for which the Ki worked out at 1 nM.

Compound `CN1CCC(c2cn(S(=O)(=O)c3ccc4ccccc4c3)c3ccccc23)C1` (stereo not drawn) [Example 8, 1-(naphth-2-ylsulfonyl)-3-(1-methylpyrrolidin-3-yl)-1H-indole] came in with a Ki of 3 nM.

In the case of `CN1CCC(c2cn(S(=O)(=O)c3ccc(N)cc3)c3ccccc23)C1` (stereo not drawn) [Example 9, 1-(4-aminophenylsulfonyl)-3-(1-methylpyrrolidin-3-yl)-1H-indole], the inhibition constant Ki was 1 nM.

Regarding `COc1ccc(S(=O)(=O)n2cc(C3CCN(C)C3)c3ccccc32)cc1OC` (stereo not drawn) [Example 10, 1-(3,4-dimethoxyphenylsulfonyl)-3-(1-methylpyrrolidin-3-yl)-1H-indole], the affinity corresponds to a Ki of 5 nM.

`CN1CCC(c2cn(S(=O)(=O)c3ccc(Cl)c(Cl)c3)c3ccccc23)C1` (stereo not drawn) [Example 11, 1-(3,4-dichlorophenylsulfonyl)-3-(1-methylpyrrolidin-3-yl)-1H-indole] yielded an inhibitory constant (Ki) of 3 nM.

`CN1CCC(c2cn(S(=O)(=O)c3cc(Cl)c(Cl)s3)c3ccccc23)C1` (stereo not drawn) [Example 12, 1-[(4,5-dichlorothien-2-yl)sulfonyl]-3-(1-methyl-pyrrolidin-3-yl)-1H-indole] showed a Ki of 4 nM.

With `CN1CCC(c2cn(S(=O)(=O)c3ccccc3Br)c3ccccc23)C1` (stereo not drawn) [Example 13, 1-(2-bromophenylsulfonyl)-3-(1-methylpyrrolidin-3-yl)-1H-indole], the Ki is 1 nM.

`CN1CCC(c2cn(S(=O)(=O)c3ccc(I)cc3)c3ccccc23)C1` (stereo not drawn) [Example 16, 1-(4-iodophenylsulfonyl)-3-(1-methylpyrrolidin-3-yl)-1H-indole] gave an inhibitory constant (Ki) of 1 nM.

The compound `CN1CCC(c2cn(S(=O)(=O)c3ccccc3I)c3ccccc23)C1` (stereo not drawn) [Example 17, 1-(2-iodophenylsulfonyl)-3-(1-methylpyrrolidin-3-yl)-1H-indole] returned an inhibition constant Ki of 2 nM.

With `Cc1ccc(S(=O)(=O)n2cc(C3CCN(Cc4ccccc4)C3)c3ccccc32)cc1` (stereo not drawn) [Example 18, 3-(1-benzylpyrrolidin-3-yl)-1-(4-methylphenylsulfonyl)-1H-indole], the inhibition constant (Ki) was 8 nM.

Regarding `Nc1ccc(S(=O)(=O)n2cc(C3CCN(Cc4ccccc4)C3)c3ccccc32)cc1` (stereo not drawn) [Example 20, 1-(4-aminophenylsulfonyl)-3-(1-benzylpyrrolidin-3-yl)-1H-indole], the Ki was 1 nM.

Consider `O=S(=O)(c1ccc(Cl)c(Cl)c1)n1cc(C2CCN(Cc3ccccc3)C2)c2ccccc21` (stereo not drawn) [Example 21, 3-(1-benzylpyrrolidin-3-yl)-1-(3,4-dichlorophenyl-sulfonyl)-1H-indole], for which the inhibition constant (Ki) stood at 15 nM.

In the case of `O=S(=O)(c1ccccc1Br)n1cc(C2CCN(Cc3ccccc3)C2)c2ccccc21` (stereo not drawn) [Example 22, 3-(1-benzylpyrrolidin-3-yl)-1-(2-bromophenylsulfonyl)-1H-indole], the inhibitory constant (Ki) is 14 nM.

`Cc1nc(N)sc1S(=O)(=O)n1cc(C2CCN(Cc3ccccc3)C2)c2ccccc21` (stereo not drawn) [Example 23, 5-[3-(1-benzylpyrrolidin-3-yl)-indole-1-sulfonyl]-4-methyl-thiazol-2-ylamine] came in with a Ki of 3 nM.

Consider `O=S(=O)(c1ccc(Br)s1)n1cc(C2CCN(Cc3ccccc3)C2)c2ccccc21` (stereo not drawn) [Example 24, 3-(1-benzylpyrrolidin-3-yl)-1-[(5-bromothien-2-yl)sulfonyl]-1H-indole], for which the Ki is 9 nM.

`O=S(=O)(c1ccccc1)n1cc(C2CCCNC2)c2ccccc21` (stereo not drawn) [Example 31, 1-Benzenesulfonyl-3-piperidin-3-yl-1H-indole] returned an inhibition constant (Ki) of 2 nM.

As to `CC(C)c1ccc(S(=O)(=O)n2cc(C3CCCNC3)c3ccccc32)cc1` (stereo not drawn) [Example 32, 1-(4-isopropyl-benzenesulfonyl)-3-piperidin-3-yl-1H-indole], the affinity, expressed as Ki, was 5 nM.

In the case of `O=S(=O)(c1ccc(Cl)s1)n1cc(C2CCCNC2)c2ccccc21` (stereo not drawn) [Example 33, 1-(5-chloro-thiophene-2-sulfonyl)-3-piperidin-3-yl-1H-indole], the inhibitory constant (Ki) turned out to be 3 nM.

For the compound `O=S(=O)(c1cccc(Cl)c1)n1cc(C2CCCNC2)c2ccccc21` (stereo not drawn) [Example 34, 1-(3-chloro-benzenesulfonyl)-3-piperidin-3-yl-1H-indole], the Ki stood at 2 nM.

In turn, `O=S(=O)(c1ccc(F)c(F)c1)n1cc(C2CCCNC2)c2ccccc21` (stereo not drawn) [Example 35, 1-(3,4-difluoro-benzenesulfonyl)-3-piperidin-3-yl-1H-indole] displayed an inhibition constant (Ki) of 7 nM.

`COc1ccc(S(=O)(=O)n2cc(C3CCCNC3)c3ccccc32)cc1` (stereo not drawn) [Example 37, 1-(4-methoxy-benzenesulfonyl)-3-piperidin-3-yl-1H-indole] returned an inhibition constant (Ki) of 10 nM.

For `O=S(=O)(c1ccc(C(F)(F)F)cc1)n1cc(C2CCCNC2)c2ccccc21` (stereo not drawn) [Example 38, 1-(4-trifluoromethy-benzenesulfonyl)-3-piperidin-3-yl-1H-indole], the inhibition constant Ki worked out at 10 nM.

`Cc1ccc(S(=O)(=O)n2cc(C3CCCNC3)c3ccccc32)cc1Cl` (stereo not drawn) [Example 39, 1-(3-chloro-4-methyl-benzenesulfonyl)-3-piperidin-3-yl-1H-indole] yielded an inhibition constant (Ki) of 6 nM.

`O=S(=O)(c1ccc2ccccc2c1)n1cc(C2CCCNC2)c2ccccc21` (stereo not drawn) [Example 41, 1-(2-naphthylenesulfonyl)-3-piperidin-3-yl-1H-indole]: the Ki was determined as 8 nM.

`O=S(=O)(c1ccc(Cl)s1)n1cc(C2CCCNC2)c2cccnc21` (stereo not drawn) [Example 47, 1-(5-chloro-thiophene-2-sulfonyl)-3-piperidin-3-yl-1H-pyrrolo[2,3-b]pyridine] registered an inhibition constant (Ki) of 7 nM.

Turning to `O=S(=O)(c1cccc(Cl)c1)n1cc(C2CCCNC2)c2cccnc21` (stereo not drawn) [Example 48, 1-(3-chloro-benzenesulfonyl)-3-piperidin-3-yl-1H-pyrrolo[2,3-b]pyridine], affinity was put at a Ki of 6 nM.

As a reminder, the Ki is a dissociation constant, usually derived from enzyme kinetics or from competition with a known ligand. Read a low Ki as higher affinity.
